According to patent publication US8629240B2, “Peptide ligands for clusterin and uses thereof” (National Research Council of Canada, priority 2009, dated 2014):
Blank lines part the entries; values can stand above or below the compound they belong to. Ends that are not written are not given here. Peptide text beside a SMILES is read from it. Alexa Fluor 680 C2‑maleimide = near-infrared dye maleimide, coupled by thioether to the C-terminal Cys; DyLight 680 = DyLight 680 fluorophore

Assays:
[1] = biological target: T1, rhCLU (recombinant human clusterin) (Homo sapiens, UniProt P10909); assay: SPR biosensor analysis, rhCLU flowed over immobilized peptide; type: binding; conditions: for binding of rhCLU to immobilized randomized peptide (Scatchard plot): randomized sequence control peptides; for sequence dependence of the interaction with clusterin: concluded from scrambled peptides; for koff / kon: 25° C.
T1 construct: made in house; host or cells: HEK-293 cells
T1 sequence (P10909 23-227 limits assumed): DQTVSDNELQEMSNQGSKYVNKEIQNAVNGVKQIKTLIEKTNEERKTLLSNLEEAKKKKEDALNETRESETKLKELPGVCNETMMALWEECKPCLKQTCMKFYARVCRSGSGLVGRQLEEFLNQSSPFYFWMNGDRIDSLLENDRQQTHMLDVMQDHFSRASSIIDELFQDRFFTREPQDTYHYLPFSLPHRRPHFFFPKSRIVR
T1 sequence (P10909 228-449 limits assumed): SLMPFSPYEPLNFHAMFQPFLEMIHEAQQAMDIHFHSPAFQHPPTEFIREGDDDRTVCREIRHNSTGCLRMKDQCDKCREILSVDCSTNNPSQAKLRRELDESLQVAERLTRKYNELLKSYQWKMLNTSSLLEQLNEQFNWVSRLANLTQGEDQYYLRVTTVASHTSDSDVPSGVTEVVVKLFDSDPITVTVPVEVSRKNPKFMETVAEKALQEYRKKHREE
From the text: Peptides were immobilized on research-grade CM5 sensor chips by a maleimide coupling method. CM5 sensor chips (research grade) and EDC were purchased from Biosensor AB (Uppsala, Sweden). This thiol coupling generates a stable thioether bond between reactive maleimide groups on the sensor chip surface and the thiol groups of the peptides. A heterobifunctional reagent, SMCC-hydrazide (4-[N-maleimidomethyl]cyclohexane-1 carboxylhydrazide; 99.5% pure; purchased from Molecular Biosciences Inc. (Boulder, Colo.)), was used to introduce reactive maleimido groups to the sensor surface. Immobilization was performed at 25° C. at a flow rate of 5 μL/min. A continuous flow of the HBS-EP buffer (20 mM HEPES, 150 mM NaCl, 3.4 mM EDTA and 0.05% Tween™-20 at pH 7.4) was maintained over the sensor surface. The carboxylated dextran matrix on the sensor surface was activated by an injection of 50 μL of a freshly mixed solution containing 172 μL of 1.2 mM […] (EDC) in 100 mM MES buffer at pH 5.00, and 28 μL of 17.8 mM SMCC-hydrazide in 40% DMF. The ratio of the SMCC:EDC was 2.5:1. Peptide-coupled surfaces were generated by injecting peptides (30-100 μg/ml) in 100 mM MES buffer (at pH 5.0). The amount of peptide immobilized on the activated surface was controlled by altering the contact time with the peptide solution and was between approximately 400 and 500 RU, or 400-500 pg peptide/mm^2. The immobilization procedure was completed by a 50 μL injection of 50 mM cysteine in 1 M sodium chloride and 0.1M sodium acetate (pH 4) to quench excess active maleimide groups.
Protein-peptide interactions were followed using a BIAcore 3000 instrument (Biosensor AB, Uppsala, Sweden). All binding experiments were carried out at 25° C. under a continuous flow of the HBS-EP buffer (20 mM HEPES, 150 mM NaCl, 3.4 mM EDTA and 0.05% Tween-200) at pH 7.4 over the sensor surface at a flow rate of 20 μL/min. Different concentrations of rh-clusterin in the HBS-EP buffer were injected over the peptide-derivatized sensor chips. Dissociation was monitored for up to 300 s post-injection. The surfaces were fully regenerated by 15 s injection of an HBS-EP buffer solution containing 5 mM NaOH. […] Reference responses from control flow cells, containing unmodified dextran surfaces, were subtracted from peptide-containing flow cells, for each analyte injection using the BiaEvaluation software version 3.0 (Biacore AB, Uppsala, Sweden).
The resulting sensorgrams were used for kinetic rate determination through global fitting of the experimental data to a simple 1:1 Langmuir binding model. […] Affinity data (KD) from the binding studies were obtained by plotting the response in RU at the steady state, Req, versus the concentration of clusterin, C, and by fitting these curves to a one-site binding model, Req=C*xRmax/(C+KD) where Rmax is the value in RU at saturation and Req is the observed optical change in RU at each given C.

[2] = biological target: T2, rh-clusterin (Homo sapiens, UniProt P10909); assay: STD-NMR binding of synthetic peptides to rh-clusterin; conditions: ~1:30 protein:peptide, 298K
T2 construct: made in house; host or cells: HEK-293 cells
T2 sequence (P10909 23-227 limits assumed): as the sequence (P10909 23-227 limits assumed) above
T2 sequence (P10909 228-449 limits assumed): as the sequence (P10909 228-449 limits assumed) above
Protocol: To confirm direct binding of the peptides of Example 1 to clusterin, the interaction of the synthetic peptides of Example 2 with clusterin was tested using Nuclear Magnetic Resonance Saturation Transfer Difference (STD-NMR; Mayer & Meyer, 2001)
NMR samples were prepared by dissolving 0.15 mM of peptides in 50 mM sodium phosphate buffer, 0.2 mM EDTA, pH 6.5. rh-clusterin (˜1 mg/ml) in 5 mM sodium phosphate buffer, 0.02 mM EDTA, pH 7.4, was added to ˜1:30 protein:peptide ratio.
All NMR experiments were performed at 298K on a Bruker Avance800™ NMR spectrometer equipped with a 5 mm triple-resonance probe with three-axis gradients. Saturation transfer difference (STD) spectra was recorded using WATERGATE version of STD pulse sequence (35) with a 3 s selective saturation pulse applied in the relaxation delay and a 20 ms spinlock pulse with a field strength of 12.25 kHz. The saturation pulse was implemented using a pulse train of 49 ms Gaussian-shaped selective pulse and 1 ms interpulse delay. Each Gaussian-shaped pulse had 1000 points with a 1% truncation and was applied with a field strength of 75.9 Hz. STD spectra were recorded with a spectral width of 16025.64 Hz and 32 K data points. Time domain signals were accumulated with 1024 and 4096 scans for the free and complexed sample, respectively. NMR data were processed using Bruker Xwinnmr 2.6. An exponential weighting function of 7 Hz was applied prior to Fourier transformation and polynomial baseline correction.
NMR signals of peptide P3378 and rh-clusterin were severely overlapped, making it impossible to apply the above saturation pulse exclusively on rh-clusterin resonances without disturbing those of the peptide. In order to identify the binding interactions in the P3378-rh-clusterin complex, a new experimental scheme was implemented by applying the on-resonance saturation pulse at methyl resonances (0.912 ppm) and the off-resonance irradiation at −7.799 ppm (referenced H2O to 4.700 ppm). […]

[3] = tested on: 4T1 tumor
Protocol: As a model system, 4T1 mouse mammary carcinoma cell line cells were used to generate tumors in syngeneic BALB/c mice. […] Six to eight weeks old female BALB/c mice were obtained from Charles River. […] A 50 μl 1:1 solution of sterile Matrigel and saline, or the same solution containing 4T1 mouse mammary tumor cells (5×10^6 cells), was injected subcutaneously into the right hind thigh of the animal. Clippers and Nair were used to remove hair from the injection site as well as the lower back and the left thigh of the animals prior to the Matrigel and tumor cell injections. When tumors measured ˜0.5 to 0.8 cm in diameter (6-8 days), the tumor-bearing mice were subjected to in vivo imaging.
Animals were imaged using the following procedures. Animals were anesthetized using isoflurane (3% in O2 at 2 L/min). Prior to the injection of the labeled peptides, animals were subjected to a full body scan to obtain a background fluorescence image. P3378-Alexa680 or P3378R-Alexa680 was administered (25 nmol in 100 μL sterile saline) via the tail vein using a 0.5-ml insulin syringe with a 27-gauge fixed needle. Immediately after, the animal was placed on the heated animals plate (39° C.) of the ART eXplore Optix MX2 imaging system (Advanced Research Technologies, Montreal, Canada). Laser power and counting time per pixel were optimized at 9.6 μW and 0.5 s, respectively. These values remained constant during the entire experiment. The raster scan interval was set at 1.5 mm and was held constant during the acquisition of each image. The data were recorded as Temporal Point-Spread Functions (TPSF), and fluorescence intensity and fluorescence lifetime maps were generated. All images were analyzed using the ART Optix OptiView™ software. Volume data and 3D images were reconstructed using the ART OptiView™ 3D Reconstruction Software Module. All animals were euthanized after the imaging experiments.
Animals were imaged in the ART Optix MX2 small animal imager using three approaches: • a. Mice were injected intravenously (i.v.) via the tail vein with either 5 nanomoles of P3378 peptide labeled with Alexa680, or P3378R peptide labeled with Alexa680; • b. Mice were injected intravenously (i.v.) via the tail vein with either 25 nanomoles of P3378 peptide labeled with Alexa680, or P3378R peptide labeled with Alexa680; • c.

[4] = biological target: T3, epidermal growth factor ectodomain (EGFR-ED) (Homo sapiens, UniProt P00533); assay: SPR specificity test with EGFR ectodomain; type: binding; conditions: EGFR-ED 70 nM to 5.63 μM over immobilized peptide
T3 construct: the epidermal growth factor ectodomain (EGFR-ED)
T3 sequence (P00533 25-645 limits assumed): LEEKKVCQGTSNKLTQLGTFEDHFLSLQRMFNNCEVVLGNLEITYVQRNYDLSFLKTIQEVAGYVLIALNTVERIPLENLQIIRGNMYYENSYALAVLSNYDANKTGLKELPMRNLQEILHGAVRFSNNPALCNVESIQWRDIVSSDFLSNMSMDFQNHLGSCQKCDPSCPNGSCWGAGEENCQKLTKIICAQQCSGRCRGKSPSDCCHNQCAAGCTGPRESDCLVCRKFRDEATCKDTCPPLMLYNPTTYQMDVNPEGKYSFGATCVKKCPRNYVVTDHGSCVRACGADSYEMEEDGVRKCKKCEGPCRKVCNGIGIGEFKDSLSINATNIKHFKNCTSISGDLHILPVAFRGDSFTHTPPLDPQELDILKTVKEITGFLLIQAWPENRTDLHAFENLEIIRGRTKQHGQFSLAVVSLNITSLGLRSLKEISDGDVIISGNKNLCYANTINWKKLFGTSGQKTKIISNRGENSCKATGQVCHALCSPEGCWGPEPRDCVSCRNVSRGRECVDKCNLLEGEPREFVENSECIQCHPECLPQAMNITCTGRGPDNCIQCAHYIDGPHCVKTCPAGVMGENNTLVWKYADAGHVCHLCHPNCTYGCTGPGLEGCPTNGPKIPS
Protocol: (§1) The specificity of the clusterin-peptide interactions was investigated using SPR biosensor analysis and proteins unrelated to clusterin. Immobilization of the peptides and other proteins on the sensor chips and the SPR experiments were conducted as described in Example 4.

[5] = tested on: 4T1 tumor; assay: In vivo blocking experiment with excess unlabeled peptide; parameters: species or system mouse
Protocol: To further validate the specificity of the in vivo targeting ability of the P3378-DL680 probe, a blocking experiment using an excess of unlabeled P3378 peptide was carried out. Mice received 25 nmoles of P3378-DL680 alone (n=1) or in combination with 5 μmoles unlabeled P3378 or P3378R peptide (both n=2) in 100 μL sterile saline. Animals in the control groups received 25 nmoles of P3378-DL680 with or without 5 μmoles of the unlabeled scrambled P3378R peptide, whereas the experimental animals were injected with 25 nmoles of P3378-DL680 in combination with 5 μmoles of unlabeled P3378 peptide. […] Furthermore, using the gated NIRF lifetime and the OptiView 3D reconstruction module we selected in each mouse the slice along the Z-axis that contained the highest concentration of P3378-DL680 and determined its relative concentration.

[6] = biological target: T4, extracellular domain of the Type II TGF-beta receptor (Homo sapiens, UniProt P37173); assay: SPR specificity test with Type II TGF-beta receptor extracellular domain; type: binding; conditions: receptor 38 nM to 4.5 μM over immobilized peptide
T4 construct: the extracellular domain of the Type II TGF-beta receptor
T4 sequence (P37173 23-166 limits assumed): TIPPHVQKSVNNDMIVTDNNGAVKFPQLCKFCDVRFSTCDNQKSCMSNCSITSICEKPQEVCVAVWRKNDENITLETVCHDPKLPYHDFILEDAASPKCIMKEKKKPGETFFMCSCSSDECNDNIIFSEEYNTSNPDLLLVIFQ
Protocol: as §1
FIG. 8 presents SPR biosensor sensorgrams showing the interaction of the extracellular domain of the Type II TGF-beta receptor (38 nM to 4.5 μM) with immobilized P3378 (500 RUs) (FIG. 8A) or P3375 (1200 RUs) (FIG. 8B).

[7] = tested on: 4T1 tumor and organs (liver, spleen, pancreas, kidney, heart, lungs); assay: Confocal microscopy of probe distribution in 4T1 tumor and organs; type: in vivo, mouse
Protocol: Confocal microscopy was used to evaluate the distribution of the P3378-DL680 probe in the 4T1 tumor and various organs (liver, spleen, pancreas, kidney, heart, lungs), harvested 15 min post-injection. […] DAPI staining of the nuclei was used to visualize tissue morphology.

[8] = global fit, one-to-one Langmuir binding model

sequence dependence of the interaction with clusterin [1]: not peptide sequence specific | binding to clusterin by STD-NMR [2]: confirmed
Compound: CC(C)C[C@H](NC(=O)[C@@H]1CCCN1C(=O)[C@H](CC(C)C)NC(=O)[C@H](C)NC(=O)[C@H](Cc1c[nH]cn1)NC(=O)[C@@H](N)CO)C(=O)N[C@H](C(=O)N[C@@H](Cc1c[nH]c2ccccc12)C(=O)N[C@@H](CO)C(=O)N[C@H](C(=O)N[C@@H](C)C(=O)N[C@@H](C)C(=O)N[C@@H](CO)C(=O)NCC(=O)N[C@@H](CO)C(=O)NCC(=O)N[C@@H](CS)C(=O)O)[C@@H](C)O)[C@@H](C)O [P3376, SHALPLTWSTAA]

binding to EGFR-ED [4]: do not bind specifically | sequence dependence of the interaction with clusterin [1]: not peptide sequence specific | koff [1, 8]: 0.006 ± 0.0002 s⁻¹ | kon [1, 8]: 11200 M⁻¹ s⁻¹ | interaction with Type II TGF-beta receptor [6]: no significant signal was observed | binding to clusterin by STD-NMR [2]: confirmed
Compound: CC(C)C[C@H](NC(=O)[C@H](CCC(N)=O)NC(=O)[C@H](CO)NC(=O)[C@H](Cc1c[nH]c2ccccc12)NC(=O)[C@H](Cc1ccc(O)cc1)NC(=O)[C@@H](NC(=O)[C@@H](N)CC(N)=O)[C@@H](C)O)C(=O)N[C@@H](CC(C)C)C(=O)N[C@@H](Cc1c[nH]cn1)C(=O)N[C@@H](Cc1ccccc1)C(=O)N[C@@H](CCC(N)=O)C(=O)N[C@H](C(=O)N[C@@H](CO)C(=O)NCC(=O)N[C@@H](CO)C(=O)NCC(=O)N[C@@H](CS)C(=O)O)[C@@H](C)O [P3375]

Further lines, the compound ahead of its results:

Compound: AWHTLASTSLAPSGSGC (Randomized control for P3376) [P3376R, randomized version of P3376, reference compound]
binding of rhCLU to immobilized randomized peptide (Scatchard plot) [1]: bound

Compound: LSLYHTNTQFWQSGSGC (Randomized control for P3375) [P3375R, randomized version of P3375, reference compound]
binding of rhCLU to immobilized randomized peptide (Scatchard plot) [1]: bound

Compound: CC(C)C[C@H](NC(=O)[C@@H]1CCCN1C(=O)[C@@H](N)Cc1c[nH]cn1)C(=O)N[C@@H](CO)C(=O)N[C@@H](CCCCN)C(=O)N[C@@H](Cc1c[nH]cn1)C(=O)N1CCC[C@H]1C(=O)N[C@@H](Cc1ccc(O)cc1)C(=O)N[C@@H](Cc1c[nH]c2ccccc12)C(=O)N[C@@H](CO)C(=O)N[C@@H](CCC(N)=O)C(=O)N1CCC[C@H]1C(=O)N[C@@H](CO)C(=O)NCC(=O)N[C@@H](CO)C(=O)NCC(=O)N[C@@H](CS)C(=O)O [P3378]
AUT/AUN ratio as a function of time: behaviour after the initial accumulation ([3]; co-injection of P3378-Dylight680 and P3378R-Dylight800, 25 nanomoles each i.v.): remains at the tumor site | residence at the tumor site ([3]; co-injection of P3378-Dylight680 and P3378R-Dylight800, 25 nanomoles each i.v., 6 animals): resided much longer at the tumor site | time post-injection up to which both peptides accumulate at the tumor site at the same rate ([3]; co-injection, AUT/AUN ratio): ~60 min | binding to EGFR-ED [4]: do not bind specifically | blocking of uptake of P3378-DL680 into the tumor by unlabeled peptide ([5]; 5 μmoles unlabeled peptide with 25 nmoles P3378-DL680, 15 min post-injection): successfully blocked uptake | sequence dependence of the interaction with clusterin [1]: sequence dependent | koff [1, 8]: 0.0052 ± 0.0002 s⁻¹ | kon [1, 8]: 17200 M⁻¹ s⁻¹ | Kd ([1]; global fit, one-to-one Langmuir binding model, read-out: Kd (global kinetic fit)): 0.3 µM | interaction with Type II TGF-beta receptor [6]: no significant signal was observed | detection in the other organs ([7]; 25 nmoles P3378-DL680, 15 min post-injection, liver, spleen, pancreas, kidney, heart, lungs): could not be detected | binding to clusterin by STD-NMR [2]: direct interaction

Compound: P3378-DL680: P3378 peptide labeled with Dylight680 fluorophor (HPLSKHPYWSQPSGSGC(DyLight 680))
relative concentration of the probe at the tumor site ([5]; in the presence of excess scrambled P3378R peptide vs probe alone): only slightly affected | relative concentration of the probe at the tumor site, times lower ([5]; in the presence of excess unlabeled P3378 peptide vs probe alone): 3-4 times | uptake of the fluorescent probe in the 4T1 tumor ([7]; 25 nmoles, 15 min post-injection, frozen sections): specific uptake and accumulation

Compound: CC(C)C[C@H](NC(=O)[C@H](Cc1ccc(O)cc1)NC(=O)[C@@H]1CCCN1)C(=O)N[C@@H](Cc1c[nH]cn1)C(=O)N[C@@H](CCC(N)=O)C(=O)N[C@@H](CO)C(=O)N1CCC[C@H]1C(=O)N[C@@H](Cc1c[nH]cn1)C(=O)N[C@@H](Cc1c[nH]c2ccccc12)C(=O)N[C@@H](CCCCN)C(=O)N1CCC[C@H]1C(=O)N[C@@H](CO)C(=O)N[C@@H](CO)C(=O)NCC(=O)N[C@@H](CO)C(=O)NCC(=O)N[C@@H](CS)C(=O)O [P3378R, PYLHQSPHWKPSSGSGC, reference compound] (H-PYLHQSPHWKPSSGSGC-OH)
accumulation in the kidneys ([3]; mouse, in vivo): faster accumulation

Compound: P3378-Alexa680: P3378 peptide labeled with Alexa Fluor 680 C2-maleimide (HPLSKHPYWSQPSGSGC(Alexa Fluor 680 C2‑maleimide))
accumulation in the tumor (as well as kidney and bladder) ([3]; 5 or 25 nanomoles i.v., Alexa680 label): accumulation
